The structures appear in SMILES notation.

The subject of one assay is male Hartley guinea pigs actively sensitized with egg-white albumin. The assay can be described thus: Antiallergic Test due to Antigen-Induced Immediate Type Airway Reaction and Delayed Type Airway Reaction. Format: in vivo. The note with it: Cavia porcellus, po, 1 min; 10 mg/kg orally once one hour before induction (prednisolone 10 mg/kg orally twice, 16 hours and 2 hours before); airway resistance increase ratio one minute after induction vs medium administration group; read-out: Inhibition (%) against immediate type allergy. The method, then:
Using an ultrasonic nebulizer (NE-U12, manufactured by OMRON Corporation), male Hartley guinea pigs (aged six weeks) were actively sensitized by consecutive 8-day inhalation of a 1 wt % physiological saline of egg-white albumin for 10 minutes a day. After one week passed since the final sensitization, an asthmatic disease state was induced by inhalation of a 2 wt % physiological saline of egg-white albumin for 5 minutes in the same manner. To inhibit the synthesis of endogenous steroid, metyrapone (10 mg/kg) was intravenously administered at 24 hours and one hour before the induction. To inhibit anaphylactic shock, pyrilamine (10 mg/kg) was intraperitoneally administered 30 minutes before inducing the asthmatic reaction.
After inducing the asthmatic reaction, the airway resistance (specific airway resistance Raw) was measured for 1 minute before inducing the asthmatic reaction, and 1 minute, 2 hours, 4 hours, 5 hours, 6 hours, 7 hours, 8 hours, and 23-24 hours after inducing the asthmatic reaction, using an airway resistance measuring apparatus (Pulmos-I, manufactured by M.I.P.S.). An average value of the airway resistance was determined, and an airway resistance increase ratio with respect to the value of the airway resistance before the induction was calculated by the following Equation 1.
Each of the test substances (10 mg/kg) listed in Table 1 was suspended in an aqueous 0.5% methyl cellulose solution, and the suspension was orally administered once one hour before inducing the asthmatic reaction. A positive control substance (prednisolone) was orally administered twice at a dosage of 10 mg/kg 16 hours and 2 hours before inducing the asthmatic reaction. The test was carried out on 8 animals per group.
According to this test procedure, a two-phase increase in airway resistance was observed immediately after inducing the asthmatic reaction and after 4-8 hours passed since inducing the asthmatic reaction. In the present invention, the former increase in airway resistance is referred to as the immediate type asthmatic reaction, while the latter increase in airway resistance is referred to as the delayed type asthmatic reaction. With respect to the evaluation of the drug, for the immediate type asthmatic reaction, the inhibition percentage with respect to the asthmatic reaction inhibiting medium administration group (referring to the group wherein a test drug is not administered after inducing the asthmatic reaction, hereinafter merely referred to as the “medium administration group”) was determined by Equation 2 using the airway resistance increase ratio after one minute gas passed since the induction as an index.
For the delayed type asthmatic reaction, the inhibition percentage with respect to the medium administration group was determined by the following Equation 3 using the area under the curve (AUC4-8) of the airway resistance increase ratio up to 4-8 hours after inducing the asthmatic reaction as an index. As an example, the relationship between the airway resistance increase ratio up to 4-8 hours after inducing the asthmatic reaction of the delayed type asthmatic reaction and time in the medium administration group, the prednisolone administration group, and the compound (216) administration group is shown in FIG. 1. As used herein, the area under the curve showing the relationship between the airway resistance increase ratio and time is (AUC4-8)
Airway resistance increase ratio (%)=(airway resistance after inducing the asthmatic airway resistance−airway resistance before inducing the asthmatic reaction)/(airway resistance before inducing the asthmatic reaction)×100
Inhibition (%)=(1−airway resistance increase ratio after one minute has passed since inducing the asthmatic reaction of the test substance administration group/airway resistance increase ratio after one minute has passed since inducing the asthmatic reaction of the medium administration group)×100 […]
As for `CCCCCCOc1c(O)c2ccc(OCCO)cc2oc1=O` [Compound (210), 3-hexyloxy-4-hydroxy-7-(2-hydroxyethoxy)-2H-1-benzopyran-2-one], the inhibition in vivo at 10 mg/kg amounted to 14.2%.

Consider `CCCCOc1c(O)c2ccc(OCCO)cc2oc1=O` [Compound (207), 3-butoxy-4-hydroxy-7-(2-hydroxyethoxy)-2H-1-benzopyran-2-one], for which the inhibition in vivo at 10 mg/kg worked out at 8.5%.

In the case of `CCCCCCOc1c(O)c2cc(OCCO)ccc2oc1=O` [Compound (109), 3-hexyloxy-4-hydroxy-6-(2-hydroxyethoxy)-2H-1-benzopyran-2-one], the inhibition in vivo at 10 mg/kg is 14%.

As to `CCCCCCCCOc1c(O)c2ccc(OCC(=O)O)cc2oc1=O` [Compound (273), 3-octyloxy-4-hydroxy-7-hydroxycarbonylmethoxy-2H-1-benzopyran-2-one], the inhibition in vivo at 10 mg/kg was 32.9%.

In the case of `CCCCCCOc1c(O)c2c(OCCO)cccc2oc1=O` [Compound (8), 3-hexyloxy-4-hydroxy-5-(2-hydroxyethoxy)-2H-1-benzopyran-2-one], the inhibition in vivo at 10 mg/kg was found to be 14.1%.

The same assay, now with this note: Cavia porcellus, po; 10 mg/kg orally once one hour before induction (prednisolone 10 mg/kg orally twice, 16 hours and 2 hours before); AUC4-8 of airway resistance increase ratio 4-8 hours after induction vs medium administration group; read-out: Inhibition (%) against delayed type allergy.
Regarding `CCCCCCOc1c(O)c2ccc(OCCO)cc2oc1=O` [Compound (210), 3-hexyloxy-4-hydroxy-7-(2-hydroxyethoxy)-2H-1-benzopyran-2-one], the inhibition in vivo at 10 mg/kg was determined as 71.4%.

Turning to `CCCCOc1c(O)c2ccc(OCCO)cc2oc1=O` [Compound (207), 3-butoxy-4-hydroxy-7-(2-hydroxyethoxy)-2H-1-benzopyran-2-one], the inhibition in vivo at 10 mg/kg is 71.7%.

Turning to `CCCCCCOc1c(O)c2cc(OCCO)ccc2oc1=O` [Compound (109), 3-hexyloxy-4-hydroxy-6-(2-hydroxyethoxy)-2H-1-benzopyran-2-one], the inhibition in vivo at 10 mg/kg was 66.8%.

For `CCCCCCCCOc1c(O)c2ccc(OCC(=O)O)cc2oc1=O` [Compound (273), 3-octyloxy-4-hydroxy-7-hydroxycarbonylmethoxy-2H-1-benzopyran-2-one], the inhibition in vivo at 10 mg/kg is 64.5%.

As to `CCCCCCOc1c(O)c2c(OCCO)cccc2oc1=O` [Compound (8), 3-hexyloxy-4-hydroxy-5-(2-hydroxyethoxy)-2H-1-benzopyran-2-one], the inhibition in vivo at 10 mg/kg stood at 58.2%.

For the origin of these results see US6670391B2, “Benzopyran derivative and antiallergic agent” (Dainippon Ink and Chemicals, Inc., priority 2001, dated 2003).
